Test results as given in patent publication US20170253601A1, “Substituted Pyrrolidine Compounds” (EPIZYME, INC., priority 2014, published 2017).

What follows are molecules tested against T1, SMYD2 (Homo sapiens, UniProt Q9NRG4) (assay: SMYD2 Biochemical Assay (3H-SAM, biotinylated peptide substrate, Flashplate)). Details: Table 2; average of n = 1 to n = 50; read-out: SMYD2 Biochem IC50.
T1 construct: Full length SMYD2 (NP 064582.2) was cloned; His6 (N, cleaved yes); FLAG (N); made in house; host or cells: Sf9 insect cells
T1 sequence (Q9NRG4 whole entry): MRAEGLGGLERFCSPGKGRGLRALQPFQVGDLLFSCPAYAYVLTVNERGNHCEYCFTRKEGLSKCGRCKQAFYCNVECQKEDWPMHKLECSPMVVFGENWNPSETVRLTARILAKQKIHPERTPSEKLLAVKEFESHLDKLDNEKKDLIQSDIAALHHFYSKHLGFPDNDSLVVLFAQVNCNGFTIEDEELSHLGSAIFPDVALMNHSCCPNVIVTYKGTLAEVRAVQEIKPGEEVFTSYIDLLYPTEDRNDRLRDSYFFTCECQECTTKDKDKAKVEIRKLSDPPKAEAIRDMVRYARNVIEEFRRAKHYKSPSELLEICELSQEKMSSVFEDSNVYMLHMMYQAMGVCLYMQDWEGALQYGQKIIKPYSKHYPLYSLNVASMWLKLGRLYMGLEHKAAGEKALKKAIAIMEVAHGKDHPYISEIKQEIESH
From the text: S-adenosylmethionine (SAM), S-adenosylhomocysteine (SAH), bicine, Tween20, dimethylsulfoxide (DMSO), bovine skin gelatin (BSG), and Tris(2-carboxyethyl)phosphine hydrochloride (TCEP) were purchased from Sigma-Aldrich at the highest level of purity possible. ^3H-SAM was purchase from American Radiolabeled Chemicals with a specific activity of 80 Ci/mmol. 384-well streptavidin Flashplates were purchased from PerkinElmer.
Peptide was synthesized with a N-terminal linker-affinity tag motif and a C-terminal amide cap by 21st Century Biochemicals. The peptide was high-performance liquid chromatography (HPLC) purified to greater than 95% purity and confirmed by liquid chromatography mass spectrometry (LC-MS). The sequence was […](K-Biot)-amide. (SEQ ID No: 3)
Full length SMYD2 (NP 064582.2) was cloned into a pFastbac-Htb-lic vector with an N-terminal His6 tag and FLAG tag, preceded by a TEV protease cleavage site. The protein was expressed in Sf9 insect cells. Cells were resuspended in lysis buffer (25 mM HEPES-NaOH, pH 7.5, 200 mM NaCl, 5% glycerol, and 5 mM β-ME) and lysed by sonication. The protein was purified by Ni-NTA (Qiagen), followed by TEV cleavage to remove the His6 tag, subtractive Ni-NTA (Qiagen), and gel filtration chromatography using an […] (GE Healthcare). Purified protein was stored in 20 mM Tris-HCl, pH 8.0, 100 mM NaCl, and 1 mM TCEP.
The assays were all performed in a buffer consisting of 20 mM Bicine (pH=7.6), 1 mM TCEP, 0.005% Bovine Skin Gelatin, and 0.002% Tween20, prepared on the day of use. Compounds in 100% DMSO (1 ul) were spotted into a polypropylene 384-well V-bottom plates (Greiner) using a Platemate Plus outfitted with a 384-channel head (Thermo Scientific). DMSO (1 ul) was added to Columns 11, 12, 23, 24, rows A-H for the maximum signal control and 1 ul of SAH, a known product and inhibitor of SMYD2, was added to columns 11, 12, 23, 24, rows I-P for the minimum signal control. A cocktail (40 ul) containing the SMYD2 enzyme was added by Multidrop Combi (Thermo-Fisher). The compounds were allowed to incubate with SMYD2 for 30 min at room temperature, then a cocktail (10 ul) containing ^3H-SAM and peptide was added to initiate the reaction (final volume=51 ul). The final concentrations of the components were as follows: SMYD2 was 1.5 nM, ^3H-SAM was 10 nM, and peptide was 60 nM, SAH in the minimum signal control wells was 1000 uM, and the DMSO concentration was 2%. The assays were stopped by the addition of non-radioactive SAM (10 ul) to a final concentration of 600 uM, which dilutes the ^3H-SAM to a level where its incorporation into the peptide substrate is no longer detectable. 50 ul of the reaction in the 384-well polypropylene plate was then transferred to a 384-well Flashplate and the biotinylated peptides were allowed to bind to the streptavidin surface for at least 1 hour before being washed three times with 0.1% Tween20 in a Biotek ELx405 plate washer. The plates were then read in a PerkinElmer TopCount plate reader to measure the quantity of ^3H-labeled peptide bound to the Flashplate surface, measured as disintegrations per minute (dpm) or alternatively, referred to as counts per minute (cpm).
Where dpm=disintegrations per minute, cmpd=signal in assay well, and min and max are the respective minimum and maximum signal controls.
Where top and bottom are the normally allowed to float, but may be fixed at 100 or 0 respectively in a 3-parameter fit. The Hill Coefficient normally allowed to float but may also be fixed at 1 in a 3-parameter fit. I is the compound concentration.
SMYD2 biochemical assay data for representative Compounds of the Disclosure are presented in Tables 1-3 in the column titled “SMYD2 Biochem IC50 (μM).”
`C[C@H]1CN(CCN)C[C@H]1NC(=O)c1cc(C2CC2)on1` (racemic) [compound 78, (±)-cis-N-(1-(2-aminoethyl)-4-methylpyrrolidin-3-yl)-5-cyclopropylisoxazole-3-carboxamide] showed an IC50 of 27.5 µM. `C[C@@H]1CN(C2CCN(C(=O)OC(C)(C)C)CC2)C[C@@H]1NC(=O)c1cc(C2CC2)on1` (racemic) [compound 80, (±)-cis-tert-butyl 4-(3-(5-cyclopropylisoxazole-3-carboxamido)-4-methylpyrrolidin-1-yl)piperidine-1-carboxylate] showed an IC50 of 30.5 µM. With `C[C@@H]1CN(C2CCNCC2)C[C@@H]1NC(=O)c1cc(C2CC2)on1` (racemic) [compound 81, (±)-cis-5-cyclopropyl-N-(4-methyl-1-(piperidin-4-yl)pyrrolidin-3-yl)isoxazole-3-carboxamide] the IC50 was > 50 µM. `C[C@@H]1CN(C2CCN(C)CC2)C[C@@H]1NC(=O)c1cc(C2CC2)on1` (racemic) [compound 82, (±)-cis-5-cyclopropyl-N-(4-methyl-1-(1-methylpiperidin-4-yl)pyrrolidin-3-yl)isoxazole-3-carboxamide] was tested, and the IC50 was > 50 µM. With `CC(=O)N1CCC(N2C[C@@H](C)[C@@H](NC(=O)c3cc(C4CC4)on3)C2)CC1` (racemic) [compound 83, (±)-cis-N-(1-(1-acetylpiperidin-4-yl)-4-methylpyrrolidin-3-yl)-5-cyclopropylisoxazole-3-carboxamide] the IC50 was > 50 µM. In the case of `C[C@@H]1CN(Cc2cccnc2)C[C@H]1NC(=O)c1cc(C2CC2)on1` (racemic) [compound 84, (±)-trans-5-cyclopropyl-N-(4-methyl-1-(pyridin-3-ylmethyl)pyrrolidin-3-yl)isoxazole-3-carboxamide], the IC50 is reported as > 50 µM. In the case of `C[C@@H]1CN(Cc2ccncc2)C[C@H]1NC(=O)c1cc(C2CC2)on1` (racemic) [compound 85, (±)-trans-5-cyclopropyl-N-(4-methyl-1-(pyridin-4-ylmethyl)pyrrolidin-3-yl)isoxazole-3-carboxamide], the IC50 is reported as > 50 µM. With `C[C@@H]1CN(Cc2ccccn2)C[C@H]1NC(=O)c1cc(C2CC2)on1` (racemic) [compound 87, (±)-trans-5-cyclopropyl-N-(4-methyl-1-(pyridin-2-ylmethyl)pyrrolidin-3-yl)isoxazole-3-carboxamide] the IC50 was > 50 µM. `CCN1C[C@@H](C)[C@H](NC(=O)c2cc(C3CC3)on2)C1` (racemic) [compound 88, (±)-trans-5-cyclopropyl-N-(1-ethyl-4-methylpyrrolidin-3-yl)isoxazole-3-carboxamide] was tested, and the IC50 was 34.2 µM. `CC(=O)N1C[C@@H](C)[C@H](NC(=O)c2cc(C3CC3)on2)C1` (racemic) [compound 89, (±)-trans-N-(1-acetyl-4-methylpyrrolidin-3-yl)-5-cyclopropylisoxazole-3-carboxamide] was tested, and the IC50 was > 50 µM. In the case of `C[C@@H]1CN(S(C)(=O)=O)C[C@H]1NC(=O)c1cc(C2CC2)on1` (racemic) [compound 90, (±)-trans-5-cyclopropyl-N-(4-methyl-1-(methylsulfonyl)pyrrolidin-3-yl)isoxazole-3-carboxamide], the IC50 is reported as > 50 µM. With `C[C@H]1CN(S(=O)(=O)C2CCNCC2)C[C@@H]1NC(=O)c1cc(C2CC2)on1` (racemic) [compound 91, (±)-trans-5-cyclopropyl-N-(4-methyl-1-(piperidin-4-ylsulfonyl)pyrrolidin-3-yl)isoxazole-3-carboxamide] the IC50 was > 50 µM. `C[C@H]1CN(C(=O)CN)C[C@@H]1NC(=O)c1cc(C2CC2)on1` (racemic) [compound 92, (±)-trans-5-cyclopropyl-N-(1-glycyl-4-methylpyrrolidin-3-yl)isoxazole-3-carboxamide] was tested, and the IC50 was > 50 µM. For `C[C@H]1CN(C(=O)CO)C[C@@H]1NC(=O)c1cc(C2CC2)on1` (racemic) [compound 93, (±)-trans-5-cyclopropyl-N-(1-(2-hydroxyacetyl)-4-methylpyrrolidin-3-yl)isoxazole-3-carboxamide], the IC50 was > 50 µM. `C[C@@H]1CN(C(=O)C2CCNCC2)C[C@H]1NC(=O)c1cc(C2CC2)on1` (racemic) [compound 94, (±)-trans-5-cyclopropyl-N-(4-methyl-1-(piperidine-4-carbonyl)pyrrolidin-3-yl)isoxazole-3-carboxamide] was tested, and the IC50 was > 50 µM. For `C[C@H]1CN(C(=O)CC2CCNCC2)C[C@@H]1NC(=O)c1cc(C2CC2)on1` (racemic) [compound 95, (±)-trans-5-cyclopropyl-N-(4-methyl-1-(2-(piperidin-4-yl)acetyl)pyrrolidin-3-yl)isoxazole-3-carboxamide], the IC50 was > 50 µM. In the case of `C[C@@H]1CN(C2CCCCC2)C[C@H]1NC(=O)c1cc(C2CC2)on1` (racemic) [compound 96, (±)-trans-N-(1-cyclohexyl-4-methylpyrrolidin-3-yl)-5-cyclopropylisoxazole-3-carboxamide], the IC50 is reported as > 50 µM. With `C[C@@H]1CN(C2CCOCC2)C[C@H]1NC(=O)c1cc(C2CC2)on1` (racemic) [compound 97, (±)-trans-5-cyclopropyl-N-(4-methyl-1-(tetrahydro-2H-pyran-4-yl)pyrrolidin-3-yl)isoxazole-3-carboxamide] the IC50 was > 50 µM. In the case of `C[C@@H]1CN(C2CCCC2)C[C@H]1NC(=O)c1cc(C2CC2)on1` (racemic) [compound 99, (±)-trans-N-(1-cyclopentyl-4-methylpyrrolidin-3-yl)-5-cyclopropylisoxazole-3-carboxamide], the IC50 is reported as 48.7 µM. For `C[C@@H]1CN(CCS(C)(=O)=O)C[C@H]1NC(=O)c1cc(C2CC2)on1` (racemic) [compound 100, (±)-trans-5-cyclopropyl-N-(4-methyl-1-(2-(methyl-sulfonyl)ethyl)pyrrolidin-3-yl)isoxazole-3-carboxamide], the IC50 was > 50 µM. In the case of `C[C@@H]1CN(CCN)C[C@H]1NC(=O)c1cc(C2CC2)on1` (racemic) [compound 101, (±)-trans-N-(1-(2-aminoethyl)-4-methylpyrrolidin-3-yl)-5-cyclopropylisoxazole-3-carboxamide], the IC50 is reported as > 50 µM. With `C[C@@H]1CN(C2CCN(C(=O)OC(C)(C)C)CC2)C[C@H]1NC(=O)c1cc(C2CC2)on1` (racemic) [compound 103, (±)-trans-tert-butyl 4-((3S,4R)-3-(5-cyclopropylisoxazole-3-carboxamido)-4-methylpyrrolidin-1-yl)piperidine-1-carboxylate] the IC50 was > 50 µM. `C[C@@H]1CN(C2CCNCC2)C[C@H]1NC(=O)c1cc(C2CC2)on1` (racemic) [compound 104, (±)-trans-5-cyclopropyl-N-((3S,4R)-4-methyl-1-(piperidin-4-yl)pyrrolidin-3-yl)isoxazole-3-carboxamide] was tested, and the IC50 was > 50 µM. For `C[C@@H]1CN(C2CCN(C)CC2)C[C@H]1NC(=O)c1cc(C2CC2)on1` (racemic) [compound 105, (±)-trans-5-cyclopropyl-N-((3S,4R)-4-methyl-1-(1-methylpiperidin-4-yl)pyrrolidin-3-yl)isoxazole-3-carboxamide], the IC50 was > 50 µM. With `CC(=O)N1CCC(N2C[C@@H](C)[C@H](NC(=O)c3cc(C4CC4)on3)C2)CC1` (racemic) [compound 106, (±)-trans-N-(1-(1-acetylpiperidin-4-yl)-4-methylpyrrolidin-3-yl)-5-cyclopropylisoxazole-3-carboxamide] the IC50 was > 50 µM. Molecule `C[C@H]1CN(Cc2cccnc2)C[C@H]1NC(=O)c1cc(C2CC2)on1` (racemic) [compound 107, (±)-cis-5-cyclopropyl-N-(4-methyl-1-(pyridin-3-ylmethyl)pyrrolidin-3-yl)isoxazole-3-carboxamide] has an IC50 of 17.7 µM.
